Values quoted from earlier work in patent US20100172993A1, “PARTICLES FOR DELIVERY OF ACTIVE INGREDIENTS, PROCESS OF MAKING AND COMPOSITIONS THEREOF” (priority 2006, published 2010).

Details: topical insect repellent

CCN(CC)C(=O)c1ccccc1 [NN Diethyl Benzamide]
Absorption of the active ingredient in the blood plasma after dermal application: no absorption of the active ingredient in the blood plasma
